Source: patent publication US10334847B2, “Antifungal composition” (The University of Sussex, priority 2014, dated 2019)

Key:
[1] = test system: microbial alternative oxidase (AOX); conditions: disclosed in WO 2013/160670; cited from earlier work
[2] = test system: cytochrome bc1 complex; conditions: disclosed in WO 2013/160670; cited from earlier work
[3] = test system: Chalara fraxinea; experiment: Agar plate growth inhibition assay of fungicides against fungi (Chalara fraxinea); format: cell-based; conditions: Chalara fraxinea on YPG agar plates, 3-5 days at 30° C.; compounds used separately or in combination
Protocol: Example 1—Assays Used to Test Fungicides Against Fungi (e.g. Chalara fraxinea)
• 2% Yeast extract • 2% Peptone • 2% D-glucose • 2% agar YPG • 2% Yeast extract • 2% Peptone • 2% Glycerol • 2% agar Fungicide Formulations
Colletochlorin B was synthesised using the methodology described in WO 2013/160670 with reference to FIG. 7. Then, 1 μM of Colletochlorin B is separately combined with […] of each of the following fungicides to produce seven different formulations:— • 1) Metalaxyl—belongs to the phenylamide fungicide family (Sukul, P. and M. Spiteller (2000) “Metalaxyl: persistence, degradation, metabolism, and analytical methods.” Rev Environ Contam Toxicol 164: 1-26); • 2) Azoxystrobin—belongs to the strobilurin family; • 3) DMI (DeMethylation Inhibitor); • 4) CuPC33—A copper based compound; • 5) Boscalid; • 6) Difenconcozole; and • 7) Pyraclostrobin. Methods • 1. Yeast strains are streaked out and grown on YPD agar plates for 3 days at 30° C. • 2. 5 mL of YPD liquid media is inoculated with a fungal strain of interest (e.g. Chalara fraxinea) and grown for 3 days at 30° C. with shaking at 180 rpm. • 3. 1 μL inoculum of the fungal strain is added to 9999 μL YPG liquid media and gently mixed. • 4. […] The degree of inhibition of fungal/yeast growth caused by the inhibitors is then assessed. […]

[4] = test system: S. cerevisiae; experiment: Agar plate growth inhibition assay against S. cerevisiae; format: cell-based; conditions: S. cerevisiae on YPG agar plates, 1 μM of each compound, alone or in combination, 3-5 days at 30° C.; FIG. 8
Protocol: The inventors tested the efficacy of a combination of Colletochlorin B and azoxystrobin on the growth of S. cerevisiae. As in Example 1, Colletochlorin B was synthesised using the methodology described in WO 2013/160670 with reference to FIG. 7.
• 1. S. cerevisiae was streaked out and grown up on YPD agar plates for 3 days at 30° C. • 2. 5 mL of YPG liquid media was inoculated with S. cerevisiae from the YPD plates and grown for 3 days at 30° C. with shaking at 180 rpm to produce a cell culture. • 3. Approximately 5×10^5 cells of the S. cerevisiae were then plated out onto YPG agar plates containing 1 μM Colletochlorin B, or 1 μM azoxystrobin, or a combination of 1 μM Colletochlorin and 1 μM azoxystrobin. • 4. The plates were incubated for 3-5 days at 30° C. • 5. The degree of inhibition of fungal/yeast growth caused by the inhibitors was then assessed.
For each plate, the yeast colony grown in the centre at the top was not grown in the presence of any inhibitor acting as a negative control. However, for the plate shown in FIG. 8A, the colony shown on the lower left was grown in the presence of only 1 μM Colletochlorin B, and for the plate shown in FIG. 8B, the colony shown on the lower left was grown in the presence of only 1 μM azoxystrobin. […]

SMILES | inhibition of AOX [1] | inhibition of cytochrome bc1 complex [2] | degree of inhibition of fungal growth [3] | degree of inhibition of fungal/yeast growth [4]
CC(C)=CCC/C(C)=C/Cc1c(O)c(Cl)c(C)c(C=O)c1O [Colletochlorin B] | particularly effective inhibition | particularly effective inhibition | partial growth inhibition | partial growth inhibition
CO/C=C(/C(=O)OC)c1ccccc1Oc1cc(Oc2ccccc2C#N)ncn1 [Azoxystrobin, reference compound] |  |  | partial growth inhibition | partial growth inhibition
